Laboratory results taken from patent publication US20250043290A1, “RNA SEQUENCES THAT INDUCE FLUORESCENCE OF SMALL MOLECULE FLUOROPHORES, MOLECULAR COMPLEXES, SENSORS, AND METHODS OF USE THEREOF” (CORNELL UNIVERSITY, priority 2021, published 2025).
Where a chain is given by its changes, count along the chain named. Where two headings read alike, the source gives them in different places. Marks after values point to notes of the source that are not given here.

What was measured:
[1] = Photophysical properties of fluorophores and RNA-fluorophore complexes (Squash study); type: physicochemical
Protocol: All RNAs used for in vitro studies (except the initial hits from SELEX and the DE2-6 mutants) were purified using 8% denaturing PAGE (7M urea) and eluted in 0.3 M NaOAc (pH 5.2) overnight. The RNA was ethanol precipitated and quantified using absorbance in a NanoDrop 2000 spectrometer. All in vitro RNA properties were measured in 40 mM HEPES-KOH (pH 7.4), 100 mM KCl, 0.5 mM MgCl2 buffer unless specified.
Absorption, excitation, and emission spectra were measured using conditions where the RNA is in excess and the fluorophore is limiting to ensure that no free fluorophore contributes to the absorbance or fluorescence signal (FIGS. 7A-7D).
All quantum yields were determined by comparing each RNA-fluorophore complex with Broccli-DFHBI-1T or Corn-DFHO. All measurements for quantum yield were taken in the presence of excess RNA (10 μM final) compared to the fluorophores (0.2 μM final) to avoid interference from unbound fluorophore. The integral of the emission spectra for each Squash-fluorophore complex was compared with the corresponding integrals for Broccoli or Corn to calculate the quantum yield.

[2] = data from Song et al., cited from earlier work
[3] = Fluorescence activation of DFHBI-1T by aptamers in vitro; type: biochemical
Description: FIG. 1A is a schematic illustrating the strategy for evolution of the add A-riboswitch aptamer. Indicated are helices P1-P3, junctional strands (J1/2, J2/3, J3/1), kissing loop (gray lines), and adenine interactions with the aptamer (dotted line) (5′-CUUCAUAUAAUCCUAAUGAUAUGGUUUGGGAGUUUCUACCAAGAGCCUUAAACUCUUGAUUAUGAAG-3′ (SEQ ID NO:36)). The chemical structure of adenine and fluorophores are shown. Three regions (Region 1: 5′-UAU AAU-3′ (SEQ ID NO:37)), Region 2: 5′-AGU UUC UAC C-3′ (SEQ ID NO:38); Region 3: 5′-GAU UAU-3′ SEQ ID NO:39), which include J1/2, J2/3, and J3/1 were randomized in both size and sequence resulting in a sprouts/clips library for SELEX. Each nucleotide in the colored regions was replaced using a combination of random stochastic deletion (designated “N”) and random stochastic insertion (designated “n”). FIG. 1B is schematic showing a three dimensional structure of the add A-riboswitch aptamer highlighting the adenine-binding pocket (PDB 1Y26). The mutagenized regions are shown in the same color as FIG. 1A. Adenine is indicated by the arrow. FIG. 1C is a schematic illustrating the evolution of the add A-riboswitch aptamer into Squash, a DFHBI-1T-binding aptamer. The sprouts/clips library was selected for binding to DFHBI-conjugated agarose resulting in aptamer 9-1. Aptamer 9-1 was subjected to two consecutive rounds of directed evolution generating DE2-6. A pair of mutations was introduced in DE2-6 to strengthen the kissing loop interaction resulting in Squash. FIG. 1D is a graph showing fluorescence activation of DFHBI-1T by different aptamer intermediates that led to Squash. The values inside the bars indicate fold-activation of DFHBI-1T fluorescence by the corresponding aptamer. Data represent mean values±s.d. for n=3 independent experiments. […]
(§1) FIG. 6A is a bar graph showing fluorescence activation of DFHO by Squash and its precursors. Fluorescence was measured with 200 nM dye and 10 μM RNA (ex: 495 nm, em: 562 nm, except for Corn; ex: 505 nm, em: 545 nm). […] FIG. 6B is a bar graph showing fluorescence of initial hits after Round 7 of SELEX. In vitro transcribed RNAs from each hit (1 μM final) were mixed with DFHBI-1T (10 μM final) and the fluorescence was measured (ex: 452 nm, em: 503 nm, except for Broccoli; ex: 472 nm, em: 507 nm). […] FIGS. 6C-6D are bar graphs showing fluorescence measurements of the hits with DFHBI-1T after first (FIG. 6C) and second (FIG. 6D) round of directed evolution, measured as in FIG. 6B. […] FIG. 6E is a bar graph showing fluorescence measurements of hits using DFHO after the second round of directed evolution measured as in FIG. 6A. The fluorescence of the hits were normalized against Corn. […] FIG. 6F is a graph showing normalized fluorescence. […] Fluorescence was measured as in FIG. 6A. […]

[4] = Fluorescence activation of DFHO by aptamers in vitro; type: biochemical
Description: FIG. 2A is a schematic showing the secondary structure of Squash as predicted by mFOLD (Squash: 5′-GGCUACAAGGUGAGCCCAAUAAUACGGUUUGGGUUAGGAUAGGAAGUAGAGCCGUAAACUCUCUAAGCGGUAGUC-3′ (SEQ ID NO:1)). Squash retained the main structural elements of add A-riboswitch aptamer including a 3-way junction and predicted kissing loop interactions (residues at positions 30, 31, 56, and 57, solid gray line). An additional base pair in the kissing loop between loop L2 and L3 (residues at positions 29 and 58, dotted gray line) improved fluorescence activation. […] Shown are the excitation (Ex) and emission (Em) spectra of Squash bound to DFHBI-1T and DFHO (structures shown in inset). Spectra were measured using 20 μM RNA and 2 μM of the indicated fluorogenic dye. […] Fluorescence activation was measured by incubating 200 nM dye and 10 μM RNA. By using a large excess of RNA compared to the fluorophore, it was ensured that the fluorescence observed is from 200 nM RNA-fluorophore complex. Data represent mean values±s.d. for n=3 independent experiments. The values inside the bars indicate fold activation. AU, arbitrary units. FIG. 2D is a graph showing the dissociation constant (Kd) between Squash and DFHO as measured by titration of 50 nM Squash with increasing concentration of DFHO, and fitted using a one-site saturation model. […] FIG. 2E is a bar graph showing the results of an experiment in which Squash-DFHO fluorescence was measured in buffers containing exclusively the indicated cations. […] Similar to the parental add A-riboswitch aptamer (see Lemay et al., “Folding of the Adenine Riboswitch,” Chem. Biol. 13:857-868 (2006), which is hereby incorporated by reference in its entirety), Squash-DFHO has a low magnesium requirement for fluorescence activation. […]
as §1

[5] = Fluorescence activation of DFAME by aptamers in vitro; type: biochemical; conditions: in vitro
Protocol: To test whether Beetroot can activate DFHO, the fluorescence emission spectrum of the Beetroot-DFHO complex was measured. In brief, 20 μM Beetroot and 2 μM DFHO were mixed, and the fluorescence emission of the Beetroot-DFHO complex was measured. […] To test whether Beetroot can activate DFHBI-1T, the fluorescence emission spectrum of the Beetroot-DFHBI-1T complex was measured using the same protocol described in FIG. 32A. […] To test whether Beetroot can activate BI, the fluorescence emission spectrum of the Beetroot-BI complex was measured using the same protocol described in FIG. 32A. […] To test whether Corn can activate DFAME, the fluorescence emission spectrum of the Corn-DFAME complex was measured using the same protocol described in FIG. 32A.
The eluted RNAs were then ethanol precipitated, reverse transcribed, PCR amplified and in vitro transcribed to yield the pool for the next SELEX round. The presence of fluorescent RNA species in each pool was assessed by mixing 20 μM RNA and 10 μM DFAME and measuring fluorescence emission of this solution on a fluorometer in comparison with the fluorophore alone. At this point, RNAs were cloned into bacterial expression plasmids for FACS-based screening.
dsDNA encoding the top-performing RNA sequences from the brightest bacterial colonies was PCR amplified from the purified plasmids. […] The resulting RNA was then purified using Zymo RNA concentrator columns and quantified by absorbance using a Thermo Scientific NanoDrop 2000 spectrophotometer. For absorption, excitation and emission spectra measurements, “excess RNA” conditions and limiting amount of fluorophore was used to ensure that no free fluorophore contributes to the absorbance or fluorescence signal. The RNA concentration used for fluorescence and absorbance measurements was 20 μM and 50 μM, respectively, while the dye concentration was 2 μM and 5 μM, respectively. All in vitro RNA properties were measured in 40 mM HEPES pH 7.4, 100 mM KCl, 5 mM MgCl2 buffer, unless specified.

[6] = 40 mM HEPES-KOH (pH 7.4), 100 mM KCl, 0.5 mM MgCl2

## CN1C(=O)/C(=C/c2cc(F)c(O)c(F)c2)N=C1/C=N/O [DFHO, 4-(3,5-difluoro-4-hydroxybenzylidene)-1-methyl-5-oxo-4,5-dihydro-1H-imidazole-2-carbaldehyde oxime]
[1]; [6]
  Emission maximum: 561 nm
  Excitation maximum: 473 nm
[1]; compared with Broccoli-DFHBI-1T or Corn-DFHO
  Fluorescence quantum yield: 0.0006
[1]; free DFHO, at 495 nm
  Extinction coefficient: 27,000** M^−1cm^−1
[1]; relative to Corn
  Brightness (extinction coefficient × quantum yield): 0.22
[2]; DFHO alone, at 505 nm, pH 7.4 buffer
  Extinction coefficient: 19,800 M^−1cm^−1
[2]
  Emission maximum: 561 nm
  Excitation maximum: 473 nm
  Fluorescence quantum yield: 0.0006
[2]; relative to Corn-DFHO
  Brightness (extinction coefficient × quantum yield): 0.16

B1: 9-1: initial SELEX hit from sprouts/clips library, SEQ ID NO: 9 (nucleic acid)
chain: GCCUAGGCUUCAAGGUGGCCCAAUGAUAUGGUUUGGGUUAGGAUAGGAAUAAGAGCCUUAAACUCUUCAAAGCGGAAGUCUAGGC
modifications: listed as RNA, chemistry not given here
[3]
  Fold activation of DFHBI-1T fluorescence: ~521 fold

B2: DE1-2: brightest aptamer of first directed evolution, SEQ ID NO: 10 (nucleic acid)
chain: GCCUAGGCUUCAAGGUGAGCCCAAUAAUAUGGUUUGGGUUAGGAUAGGAAGAAGAGCCUUAAACUCUCUAAGCGGAAGUCUAGGC
modifications: listed as RNA, chemistry not given here
[3]
  Fold activation of DFHBI-1T fluorescence: approximately 790 fold

B3: DE2-6: aptamer of second directed evolution, SEQ ID NO: 11 (nucleic acid)
chain: B2 chain with U10A, A52U, A76U
modifications: listed as RNA, chemistry not given here
[3]
  Fold activation of DFHBI-1T fluorescence: approximately 949 fold
[4]
  Fold activation of DFHO fluorescence: ~492 fold

B4: 10-1: RNA aptamer from 10 rounds of SELEX that binds DFAME, SEQ ID NO: 95 (nucleic acid)
chain: GCUUCCGUGCGACAUCAUGCGCGCGACUGCUUCGGCAGAGGUGGGUGGUGUGGAGGAGUAUCUG
modifications: RNA, backbone not given here
[5]
  Fold fluorescence enhancement of DFAME: threefold
